According to patent publication US20260325617A1, “INKT Cell Modulator Liposomal Compositions and Methods of Use” (priority 2023, published 2026):
Where “and” joins values, the source holds several entries; their conditions need not be identical. Equal values may be shown once. Read-outs that look alike come from different tables or passages of the source.

What was measured:
[1] = tested on: iNKT cells / immune cells; experiment: PD-1 / PD-L1 upregulation on immune cells by soluble IMM60
[2] = Mouse pharmacokinetics of IMM60 after i.v. liposomal or soluble IMM60 (Example 7); format: in vivo, mouse (C57BL/6 and CD1)
Protocol: The two strains of mice that were compared were CD1 mice (not to be confused with CD1d-KO mice) and C57BL/mice. The half-life, volume of distribution, clearance, AUC, and Cmax were calculated using the one-compartmental model with first-order kinetics.
Lipid formulation: DSPG:DSPC:IMM60 (3.44:4.37:1 mg/ml) in a 250 mM sucrose, 145 mM NaCl, 10 mM sodium phosphate, pH 6.5 buffer. Before use, Vials of liposomal IMM60 were thawed at room temperature (21° C.-22° C.), then heated to 55° C. for 10 minutes using a heated water bath. Vials were mixed by inversion six times, cooled to room temperature, and diluted to either 100 ng/ml or 10,000 ng/ml using injection grade saline (0.9% NaCl).
Soluble IMM60: Lyophilized material was resuspended in Chloroform:methanol:water (10:10:3) to 10 mg/ml (vials of 100 μg in 10 μl) swirled around to capture all the material and then Vehicle solution (150 mM NaCl, 0.5% Tween20 in distilled water) added quickly to a final concentration of 100 μg/ml (for 100 μg in 10 μl, added 990 μl of Vehicle), then then heated to 80-90° C. for 5 minutes, and sonicated with a waterbath sonicator for 5 minutes. Samples were diluted to 10,000 ng/ml using injection grade saline.
Mice were warmed up for 20-30 minutes in cages place in a 37° C. heating chamber. Mice within each group were injected intravenously, using 27G insulin syringe needles, with 100 μl (C57BL/mice) or 150 μl (CD-1 mice) of the recorded dose over approximately 4 seconds.
Plasma samples were analyzed by LC/MS/MS at Frontage Laboratories. […] The method uses alpha GalCer (analog to IMM60) as an internal standard and the mass spectroctoscopic ionization is electrospray in the positive ionization mode. The range of calibration standards is between 1 ng/mL to 1000 ng/mL IMM60 in mouse plasma.
Plasma concentrations were measured 10 and 180 minutes after IV administration. The half-life, clearance, and AUC(0-∞) were calculated using the one-compartmental model with first-order kinetics since only two time points were samples along the PK profile. Using these assumptions allow for the calculation of PK parameters. Other assumption is that the T10 minutes is substituted for T0 and C10 minutes is substituted for C0 and Cmax to solve for PK parameters of liposomal IMM60.
Statistical Calculations: the mean, standard deviation (SD), standard error of the mean (SE), p-value from the t-test (equal or unequal variances) was calculated using Microsoft Excel 201 (Microsoft Corporation). Equal or unequal variances were chosen based on use of the F-test function. All t-test comparisons were performed with the 1000 ng IMM60 in liposome form as the control. Half-life T(1/2) in Mouse of IMM60: The half-life for mice of IMM60 is calculated using Equation 1 using the one-compartment model with 1st order kinetics.

[3] = individual mouse, C57BL/6, 1000 ng i.v., listed as IMM60 soluble
[4] = individual mouse, CD1, 1500 ng i.v., listed as IMM60 soluble

CCCCCCCCCCCCCCCCCCCCCCCCCC(=O)N[C@@H](CO[C@H]1CC[C@H](O)[C@H](O)[C@H]1O)[C@H](O)[C@H](O)CCCCCCCCCCCCCC [soluble IMM60]
PD-1 on iNKT cells [1]: upregulate the levels of PD-1 on iNKT cells | PD-L1 on a variety of immune cells [1]: upregulates expression of PD-L1 | Cmax ([2]; individual mouse, C57BL/6, 1000 ng i.v., 10 min, listed as IMM60 soluble): 87.7 ng/mL | AUC(0-∞) [2, 3]: 12,418 ng/ml/min | Vd [2, 3]: 0.0114 L | half-life [2, 3]: 1.636 h | Cmax ([2]; individual mouse, CD1, 1500 ng i.v., 10 min, listed as IMM60 soluble): 105.0 ng/mL | AUC(0-∞) [2, 4]: 17,976 ng/ml/min | Vd [2, 4]: 0.01429 L | half-life [2, 4]: 1.9773 h | Half-life and volume of distribution vs liposomal ([2]; mice): longer half-life and larger volume of distribution | AUC(0-inf) ([2]; mouse, plasma, iv, 0.001 mg, average, C57BL/6, 1000 ng i.v.): 204 ng·h/mL | Cmax at 10 min ([2]; mouse, plasma, iv, 0.001 mg, average, C57BL/6, 1000 ng i.v., 10 min): 89.7 ng/mL | clearance ([2]; mouse, plasma, iv, 0.001 mg, average, C57BL/6, 1000 ng i.v., read-out: Clearance): 0.08 mL/min | half-life ([2]; mouse, plasma, iv, 0.001 mg, average, C57BL/6, 1000 ng i.v., read-out: Half-life): 1.58 h | Vd ([2]; mouse, plasma, iv, 0.001 mg, average, C57BL/6, 1000 ng i.v., read-out: Vd): 0.0112 L | AUC(0-inf) ([2]; mouse, plasma, iv, 0.001 mg, individual mouse, C57BL/6, 1000 ng i.v.): 201 ng·h/mL | Cmax at 10 min ([2]; mouse, plasma, iv, 0.001 mg, individual mouse, C57BL/6, 1000 ng i.v., 10 min): 91.7 ng/mL | clearance ([2]; mouse, plasma, iv, 0.001 mg, individual mouse, C57BL/6, 1000 ng i.v., read-out: Clearance): 0.08 mL/min | half-life ([2]; mouse, plasma, iv, 0.001 mg, individual mouse, C57BL/6, 1000 ng i.v., read-out: Half-life): 1.52 h | Vd ([2]; mouse, plasma, iv, 0.001 mg, individual mouse, C57BL/6, 1000 ng i.v., read-out: Vd): 0.0109 L | AUC(0-inf) ([2]; mouse, plasma, iv, 0.0015 mg, average, CD1, 1500 ng i.v.): 269 ng·h/mL | Cmax at 10 min ([2]; mouse, plasma, iv, 0.0015 mg, average, CD1, 1500 ng i.v., 10 min): 83.7 ng/mL | clearance ([2]; mouse, plasma, iv, 0.0015 mg, average, CD1, 1500 ng i.v., read-out: Clearance): 0.09 mL/min | half-life ([2]; mouse, plasma, iv, 0.0015 mg, average, CD1, 1500 ng i.v., read-out: Half-life): 2.32 h | Vd ([2]; mouse, plasma, iv, 0.0015 mg, average, CD1, 1500 ng i.v., read-out: Vd): 0.0192 L | AUC(0-inf) ([2]; mouse, plasma, iv, 0.0015 mg, individual mouse, CD1, 1500 ng i.v.): 239 ng·h/mL | Cmax at 10 min ([2]; mouse, plasma, iv, 0.0015 mg, individual mouse, CD1, 1500 ng i.v., 10 min): 62.4 ng/mL | clearance ([2]; mouse, plasma, iv, 0.0015 mg, individual mouse, CD1, 1500 ng i.v., read-out: Clearance): 0.1 mL/min | half-life ([2]; mouse, plasma, iv, 0.0015 mg, individual mouse, CD1, 1500 ng i.v., read-out: Half-life): 2.66 h | Vd ([2]; mouse, plasma, iv, 0.0015 mg, individual mouse, CD1, 1500 ng i.v., read-out: Vd): 0.024 L | AUC(0-inf) ([2]; mouse, plasma, iv, 0.05 mg/kg, C57BL and CD1 strains, high dose): 204 to 269 ng·h/mL | clearance ([2]; mouse, plasma, iv, 0.05 mg/kg, C57BL and CD1 strains, high dose, read-out: Clearance): 3.1 to 4.1 mL/min/kg | Cmax ([2]; mouse, plasma, iv, 0.05 mg/kg, C57BL and CD1 strains, high dose, read-out: Cmax): 84 to 90 ng/mL | half-life ([2]; mouse, plasma, iv, 0.05 mg/kg, C57BL and CD1 strains, high dose, read-out: Half life T1/2): 1.58 to 2.32 h | Vd ([2]; mouse, plasma, iv, 0.05 mg/kg, C57BL and CD1 strains, high dose, read-out: Volume of distribution Vd): 0.558 to 0.639 L/kg | AUC(0-inf) ([2]; mouse, plasma, iv, 0.05 mg/kg, mean ± SE, 1000 ng (50 μg/kg) i.v.): 204 ng·h/mL | clearance ([2]; mouse, plasma, iv, 0.05 mg/kg, mean ± SE, 1000 ng (50 μg/kg) i.v., read-out: Cl): 0.08 mL/min and 4.09 mL/min/kg | Cmax ([2]; mouse, plasma, iv, 0.05 mg/kg, mean ± SE, 1000 ng (50 μg/kg) i.v., read-out: Cmax): 90 ± 2 ng/mL | Vd ([2]; mouse, plasma, iv, 0.05 mg/kg, mean ± SE, 1000 ng (50 μg/kg) i.v., read-out: Vd): 0.558 ± 0.012 L/kg | half-life ([2]; mouse, plasma, iv, 0.05 mg/kg, mean ± SE, 1000 ng (50 μg/kg) i.v., read-out: t1/2): 1.57 ± 0.06 h | AUC(0-inf) ([2]; mouse, plasma, iv, 0.05 mg/kg, mean ± SE, 1500 ng (50 μg/kg) i.v.): 269 ng·h/mL | clearance ([2]; mouse, plasma, iv, 0.05 mg/kg, mean ± SE, 1500 ng (50 μg/kg) i.v., read-out: Cl): 0.09 mL/min and 3.13 mL/min/kg | Cmax ([2]; mouse, plasma, iv, 0.05 mg/kg, mean ± SE, 1500 ng (50 μg/kg) i.v., read-out: Cmax): 84 ± 21 ng/mL | Vd ([2]; mouse, plasma, iv, 0.05 mg/kg, mean ± SE, 1500 ng (50 μg/kg) i.v., read-out: Vd): 0.639 ± 0.163 L/kg | half-life ([2]; mouse, plasma, iv, 0.05 mg/kg, mean ± SE, 1500 ng (50 μg/kg) i.v., read-out: t1/2): 2.32 ± 0.34 h
